# Tested on: 388556-164-R-J1-PDC complex spheroid viability
# Assay: Anticancer human tumor 388556-164-R-J1-PDC patient-derived colon adenocarcinoma cell line growth inhibition [RAS]
# Conditions: for viability, T/C: stronger effect = lower value; for IC50: curve of first compound
# How it was run: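 Multi-cell-type spheroids: tumor cells plus HUVEC endothelial cells and mesenchymal stem cells. RAS-pathway inhibitors were combined with targeted agents, each dosed in half-log steps down from clinical Cmax, or from 10 microM when Cmax was unknown.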
# 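Note: spheroids exposed to compound for 7 days before readout.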
# 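Throughout, for viability, T/C: 100% = DMSO vehicle control luminescence.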
structure (smiles),measurement,setting,value
Cc1nc(N2CCC3(CC2)COC(C)C3N)c(CO)nc1Sc1ccnc(N)c1Cl (configuration not stated),"viability, T/C",compound 0.1 µM,81.2% [middle of 4 runs]
same,"viability, T/C",compound 0.316 µM,70.5% [middle of 4 runs]
same,"viability, T/C",compound 1 µM,62.4% [middle of 4 runs]
same,"viability, T/C",compound 3.16 µM,53.9% [middle of 4 runs]
same,"viability, T/C",compound 10 µM,46.1% [middle of 4 runs]
C[C@@H](NC(=O)c1ncnc(N)c1Cl)c1ncc(C(=O)Nc2cc(C(F)(F)F)c(Cl)cn2)s1 + CCn1c(-c2cccnc2C(C)OC)c2c3cc(ccc31)N1CCOC(CC(NC(=O)C(C(C)C)N(C)C(=O)C3(F)CCN(C(=O)C#CC(C)(C)N(C)C)CC3)C(=O)N3CCCC(N3)C(=O)OCC(C)(C)C2)C1,IC50,second compound 0.000949 µM,> 10 µM
same,IC50,second compound 0.003 µM,> 10 µM
same,IC50,second compound 0.00949 µM,> 10 µM
same,IC50,second compound 0.03 µM,> 10 µM
same,IC50,second compound 0.0949 µM,> 10 µM
same,IC50,second compound 0.3 µM,> 10 µM
same,"viability, T/C","second compound 0.000949 µM, first compound 0.0316 µM",113%
same,"viability, T/C","second compound 0.000949 µM, first compound 0.1 µM",113%
same,"viability, T/C","second compound 0.000949 µM, first compound 0.316 µM",115%
same,"viability, T/C","second compound 0.000949 µM, first compound 1 µM",123%
same,"viability, T/C","second compound 0.000949 µM, first compound 3.16 µM",117%
same,"viability, T/C","second compound 0.000949 µM, first compound 10 µM",94.7%
same,"viability, T/C","second compound 0.003 µM, first compound 0.0316 µM",117%
same,"viability, T/C","second compound 0.003 µM, first compound 0.1 µM",102%
same,"viability, T/C","second compound 0.003 µM, first compound 0.316 µM",119%
same,"viability, T/C","second compound 0.003 µM, first compound 1 µM",108%
same,"viability, T/C","second compound 0.003 µM, first compound 3.16 µM",121%
same,"viability, T/C","second compound 0.003 µM, first compound 10 µM",96.7%
same,"viability, T/C","second compound 0.00949 µM, first compound 0.0316 µM",105%
same,"viability, T/C","second compound 0.00949 µM, first compound 0.1 µM",109%
same,"viability, T/C","second compound 0.00949 µM, first compound 0.316 µM",113%
same,"viability, T/C","second compound 0.00949 µM, first compound 1 µM",108%
same,"viability, T/C","second compound 0.00949 µM, first compound 3.16 µM",123%
same,"viability, T/C","second compound 0.00949 µM, first compound 10 µM",105%
same,"viability, T/C","second compound 0.03 µM, first compound 0.0316 µM",113%
same,"viability, T/C","second compound 0.03 µM, first compound 0.1 µM",102%
same,"viability, T/C","second compound 0.03 µM, first compound 0.316 µM",102%
same,"viability, T/C","second compound 0.03 µM, first compound 1 µM",109%
same,"viability, T/C","second compound 0.03 µM, first compound 3.16 µM",117%
same,"viability, T/C","second compound 0.03 µM, first compound 10 µM",91.1%
same,"viability, T/C","second compound 0.0949 µM, first compound 0.0316 µM",93.4%
same,"viability, T/C","second compound 0.0949 µM, first compound 0.1 µM",115%
same,"viability, T/C","second compound 0.0949 µM, first compound 0.316 µM",110%
same,"viability, T/C","second compound 0.0949 µM, first compound 1 µM",119%
same,"viability, T/C","second compound 0.0949 µM, first compound 3.16 µM",113%
same,"viability, T/C","second compound 0.0949 µM, first compound 10 µM",90.7%
same,"viability, T/C","second compound 0.3 µM, first compound 0.0316 µM",87.3%
same,"viability, T/C","second compound 0.3 µM, first compound 0.1 µM",108%
same,"viability, T/C","second compound 0.3 µM, first compound 0.316 µM",99.6%
same,"viability, T/C","second compound 0.3 µM, first compound 1 µM",104%
same,"viability, T/C","second compound 0.3 µM, first compound 3.16 µM",115%
same,"viability, T/C","second compound 0.3 µM, first compound 10 µM",88%

# — PubChem BioAssay AID2060907 (Molecular Pharmacology Branch, DTP, NCI, 2025)
